# Measurements from US20090069180A1 (priority 2006, published 2009).
# Tests used:
# Pyricularia oryzae = type: cell-based; details: 125 ppm, microtiter plate, absorption at 405 nm on day 7 after inoculation, relative to active compound-free control
smiles,measurement,setting,value
"CC1CCCN1c1nc(C#N)nc(Cl)c1/C(Br)=C(\Br)[Si](C)(C)C (stereo not drawn) [C-1, 4-Chloro-2-cyano-5-((E)-1,2-dibromo-2-trimethylsilylvinyl)-6-(2-methylpyrrolidin-1-yl)-pyrimidine]",relative pathogen growth,Pyricularia oryzae,0%
same,melting point,,166 to 168 °C
"CONC(=N)c1nc(Cl)c(/C(Br)=C(/Cl)Br)c(N2CCCC2C)n1 (stereo not drawn) [C-4, N-Methoxy-4-chlor-5-((E)-2-chloro-1,2-dibromovinyl)-6-(2-methyl-pyrrolidin-1-yl)-2-pyrimidinecarboximidamide]",relative pathogen growth,Pyricularia oryzae,0%
